Results: patent publication US20120022143A1, “RNA Interference Mediated Inhibition of the Thymic Stromal Lymphopoietin (TSLP) Gene Expression Using Short Interfering Nucliec Acid (siNA)” (Merck Sharp & Dohme Corp, priority 2009, published 2012)
[invAb] = inverted abasic unit; d = 2'-deoxy (DNA); m = 2'-O-methyl; r = 2'-OH (RNA); f = 2'-fluoro

Tests used:
mTSLP mRNA = experiment: Initial screening: mouse TSLP mRNA knock-down by RT-PCR (Taqman) after RNAiMax transfection of NIH 3T3 cells; format: cell-based; settings: 10 nM siNA, 24 hrs post-transfection, mean ± s.d., summary from 2 screens
Experimental: (§1) All cells were obtained from ATCC (Manassas, Va.) unless otherwise indicated. Cells were grown and transfected under standard conditions, which are detailed below for each cell line.
NIH 3T3 (murine; ATCC cat#CRL-1658): Cells were cultured at 37° C. in the presence of 5% CO2 and grown in Dulbecco's modified Eagle's medium (DMEM) with 4 mM L-glutamine adjusted to contain 1.5 g/L sodium bicarbonate and 4.5 g/L glucose and supplemented with fetal bovine serum at a final concentration of 10% and 100 μg/mL of streptomycin and 100 U/mL penicillin.
(§2) All transfections were performed using RNAiMax (Invitrogen Cat# 13778-150) as per the manufacturer's instructions.
(§3) Both human and murine cell lines were transfected in the similar fashion. Cells were plated in all wells of a tissue-culture treated, 96-well plate at a final count of 5,000 cells/well in […], of appropriate culture media. Cells were cultured for 24 hours after plating at 37° C. in the presence of 5% CO2.
(§4) After 24 hours, complexes containing siNA and RNAiMax were created as follows: A solution of RNAiMax diluted 33-fold in OPTI-MEM was prepared. In parallel, solutions of the siNAs for testing were prepared to a final concentration of 120 nM in OPTI-MEM. After incubation of RNAiMax/OPTI-MEM solution at room temperature for 5 min, an equal volume of the siNA solution and the RNAiMax solution were added together for each of the siNAs.
(§5) This solution was incubated at room temperature for 20 minutes. After incubation, 20 uL of the solution was added to each of the relevant wells.
(§6) The final concentration of siNA in each well was 10 nM and the final volume of RNAiMax in each well was 0.3 ul.
(§7) The time of incubation with the RNAiMax-siNA complexes was 24 hours, unless otherwise indicated. There was no change in media between the transfection and harvesting of the cells unless otherwise indicated.
(§8) RNA was extracted from a 96-well plate using the TaqMan® Gene Expression Cells-to-CT™ Kit (Cat# 4399002) with a modified protocol. Briefly, a 60 uL (1 plate) or 110 uL (2 plates) of the Lysis Solution with DNase I was dispensed into each well of the Lysis Buffer Plate (twin.tec full skirt plate). The lysis buffer and stop plates were stored at 4° C. until the cells were washed.
(§9) The plate was spun at 1100 rpm for 5 minutes. The culture medium was aspirated and discarded from the wells of the culture plate. The lysis was performed automatically using a BioMek FX instrument and method. After the Biomek method was completed, the lysis plate was incubated for 2 min. at room temperature. The lysis plate can be stored for 2 hours at 4° C., or at −20° C. or −80° C. for two months.
(§10) Each well of the reverse transcription plate required 10 uL of 2× reverse transcriptase Buffer, luL of 20× reverse transcription enzyme and 2 uL of nuclease-free water. The reverse transcription master mix was prepared by mixing 2× reverse transcription buffer, 20× reverse transcription enzyme mix, and nuclease-free water. 13 uL of the reverse transcription master mix was dispensed into each well of the reverse transcription plate (semi-skirted). A separate reverse transcription plate was prepared for each cell plate. The plate was loaded onto a Biomek NX or Biomek FX Dual-96 and the Biomek method was run. The program is programmed to automatically added 7 uL of lysate from the cell lysis procedure described above into each well of the reverse transcription plate. The plate is sealed and spun on a centrifuge (1000 rpm for 30 seconds) to settle the contents to the bottom of the reverse transcription plate. The plate is placed in a thermocycler at 37° C. for 60 min, 95° C. for 5 min, and 4° C. until the plate is removed from the thermocycler. Upon removal, if not used immediately, the plate was frozen at −20° C.
A series of probes and primers were used to detect the various mRNA transcripts of the genes of TSLP, IL-8 and GAPDH in human cell lines. […]

TSLP mRNA = experiment: Initial screening: TSLP mRNA knock-down by RT-PCR (Taqman) after RNAiMax transfection of NHLF cells; format: cell-based; settings: 10 nM siNA, human NHLF cells, 24 hrs post-transfection, relative to non-targeting control, normalized to GAPDH; mean ± s.d. from 2 experiments
Experimental: as §1
NHLF (human; Lonza cat# CC-2512): Cells were cultured at 37° C. in the presence of 5% CO2 and grown Fibroblast Basal Medium (Lonza cat# CC-3β2) supplemented growth factors (provided with the kit) and 100 μg/mL of streptomycin and 100 U/mL penicillin.
as §2, §3, §4, §5, §6, §7, §8, §9, §10
A series of probes and primers were used to detect the various mRNA transcripts of the genes of TSLP, IL-8 and GAPDH in human cell lines. All the Taqman probes and primers for the experiments here-in described were supplied as pre-validated sets by Applied Biosystems, Inc. (see Table 2). […]

In the case of “25461-DC: siNA duplex: sense B GGGcuAAcuuAcAAcuuuu TTB (SEQ ID NO: 105), antisense AAAAGuuGuAAGuuAGcccUU (SEQ ID NO: 106) (sense GGGCUAACUUACAACUUUUTT; antisense AAAAGUUGUAAGUUAGCCCUU; sense: DNA at AGT, 2'-fluoro at CU, [invAb] at 5' end, 3' end, backbone not given here; antisense: sugars from the 5' end rrrmmffmfmmmffmmfffmm, backbone not given here)”, the “% KD mTSLP NIH3T3” value (mTSLP mRNA) is reported as −17.2 ± 3.6% and the “% KD TSLP” value (TSLP mRNA) is reported as −48 ± 56.1%.
With “25444-DC: siNA duplex: sense B GuGucAcAAuuAcAAGGAu TTB (SEQ ID NO: 71), antisense AUCcuuGuAAuuGuGAcAcUU (SEQ ID NO: 72) (sense GUGUCACAAUUACAAGGAUTT; antisense AUCCUUGUAAUUGUGACACUU; sense: DNA at AGT, 2'-fluoro at CU, [invAb] at 5' end, 3' end, backbone not given here; antisense: sugars from the 5' end rrrfffmfmmffmfmmfmfmm, backbone not given here)” the “% KD mTSLP NIH3T3” value (mTSLP mRNA) was 19.5 ± 19% and the “% KD TSLP” value (TSLP mRNA) was 80 ± 5.3%.
“25468-DC: siNA duplex: sense B uGcuGAAuAAAGuAAuucu TTB (SEQ ID NO: 119), antisense AGAAuuAcuuuAuucAGcAUU (SEQ ID NO: 120) (sense UGCUGAAUAAAGUAAUUCUTT; antisense AGAAUUACUUUAUUCAGCAUU; sense: DNA at AGT, 2'-fluoro at CU, [invAb] at 5' end, 3' end, backbone not given here; antisense: sugars from the 5' end rrrmffmffffmfffmmfmmm, backbone not given here)” was tested, and the “% KD mTSLP NIH3T3” value (mTSLP mRNA) was 32.2 ± 15.2% and the “% KD TSLP” value (TSLP mRNA) was 30 ± 12.9%.
In the case of “25437-DC: siNA duplex: sense B cAGGGAGAcuccAAcuuAA TTB (SEQ ID NO: 57), antisense UUAAGuuGGAGucucccuGUU (SEQ ID NO: 58) (sense CAGGGAGACUCCAACUUAATT; antisense UUAAGUUGGAGUCUCCCUGUU; sense: sugars from the 5' end frddddddffffddfffdddd, [invAb] at 5' end, 3' end, backbone not given here; antisense: sugars from the 5' end rrrmmffmmmmfffffffmmm, backbone not given here)”, the “% KD mTSLP NIH3T3” value (mTSLP mRNA) is reported as 33.8 ± 4.2% and the “% KD TSLP” value (TSLP mRNA) is reported as −51 ± 36.2%.
In the case of “25440-DC: siNA duplex: sense B cucuGGuuuuuuAAAuGuA TTB (SEQ ID NO: 63), antisense UACAuuuAAAAAAccAGAGUU (SEQ ID NO: 64) (sense CUCUGGUUUUUUAAAUGUATT; antisense UACAUUUAAAAAACCAGAGUU; sense: DNA at AGT, 2'-fluoro at CU, [invAb] at 5' end, 3' end, backbone not given here; antisense: sugars from the 5' end rrrmfffmmmmmmffmmmmmm, backbone not given here)”, the “% KD mTSLP NIH3T3” value (mTSLP mRNA) is reported as 1 ± 33.1% and the “% KD TSLP” value (TSLP mRNA) is reported as 16 ± 20.1%.
With “25466-DC: siNA duplex: sense B cAGAAGGGAuucuuAAcuu TTB (SEQ ID NO: 115), antisense AAGuuAAGAAucccuucuGUU (SEQ ID NO: 116) (sense CAGAAGGGAUUCUUAACUUTT; antisense AAGUUAAGAAUCCCUUCUGUU; sense: DNA at AGT, 2'-fluoro at CU, [invAb] at 5' end, 3' end, backbone not given here; antisense: sugars from the 5' end r3 f2 m5 f8 m3, backbone not given here)” the “% KD mTSLP NIH3T3” value (mTSLP mRNA) was −17.8 ± 28.5% and the “% KD TSLP” value (TSLP mRNA) was 38 ± 25^ %.
“25455-DC: siNA duplex: sense B AcAGAAGAGuuucuuAAcu TTB (SEQ ID NO: 93), antisense AGUuAAGAAAcucuucuGuUU (SEQ ID NO: 94) (sense ACAGAAGAGUUUCUUAACUTT; antisense AGUUAAGAAACUCUUCUGUUU; sense: DNA at AGT, 2'-fluoro at CU, [invAb] at 5' end, 3' end, backbone not given here; antisense: sugars from the 5' end rrrfmmmmmmfffffffmfmm, backbone not given here)” was tested, and the “% KD mTSLP NIH3T3” value (mTSLP mRNA) was 4.9 ± 26% and the “% KD TSLP” value (TSLP mRNA) was 79 ± 11.3%.
In the case of “25432-DC: siNA duplex: sense B cuGAGGAAAAucAGGAcAu TTB (SEQ ID NO: 47), antisense AUGuccuGAuuuuccucAGUU (SEQ ID NO: 48) (sense CUGAGGAAAAUCAGGACAUTT; antisense AUGUCCUGAUUUUCCUCAGUU; sense: DNA at AGT, 2'-fluoro at CU, [invAb] at 5' end, 3' end, backbone not given here; antisense: sugars from the 5' end r3 f4 m2 f8 m4, backbone not given here)”, the “% KD mTSLP NIH3T3” value (mTSLP mRNA) is reported as 37.1 ± 3.8% and the “% KD TSLP” value (TSLP mRNA) is reported as 47 ± 26.2%.
In the case of “25470-DC: siNA duplex: sense B AAAGuAGAAAAAAAAAuuA TTB (SEQ ID NO: 123), antisense UAAuuuuuuuuucuAcuuuUU (SEQ ID NO: 124) (sense AAAGUAGAAAAAAAAAUUATT; antisense UAAUUUUUUUUUCUACUUUUU; sense: sugars from the 5' end d4 f1 d11 f2 d3, [invAb] at 5' end, 3' end, backbone not given here; antisense: sugars from the 5' end r3 f11 m1 f4 m2, backbone not given here)”, the “% KD mTSLP NIH3T3” value (mTSLP mRNA) is reported as 19.3 ± 10.3% and the “% KD TSLP” value (TSLP mRNA) is reported as 28 ± 22.6%.
“25445-DC: siNA duplex: sense B GGGAuAGAAAAGuAGGuAA TTB (SEQ ID NO: 73), antisense UUAccuAcuuuucuAucccUU (SEQ ID NO: 74) (sense GGGAUAGAAAAGUAGGUAATT; antisense UUACCUACUUUUCUAUCCCUU; sense: DNA at AGT, 2'-fluoro at U, [invAb] at 5' end, 3' end, backbone not given here; antisense: sugars from the 5' end rrrfffmfffffffmffffmm, backbone not given here)” was tested, and the “% KD mTSLP NIH3T3” value (mTSLP mRNA) was 36.1 ± 1.6% and the “% KD TSLP” value (TSLP mRNA) was −66 ± 42.7%.
With “25457-DC: siNA duplex: sense B cucAGGAAAuGGcAcAAGA TTB (SEQ ID NO: 97), antisense UCUuGuGccAuuuccuGAGUU (SEQ ID NO: 98) (sense CUCAGGAAAUGGCACAAGATT; antisense UCUUGUGCCAUUUCCUGAGUU; sense: DNA at AGT, 2'-fluoro at CU, [invAb] at 5' end, 3' end, backbone not given here; antisense: sugars from the 5' end rrrfmfmffmffffffmmmmm, backbone not given here)” the “% KD mTSLP NIH3T3” value (mTSLP mRNA) was 81.5 ± 3.7% and the “% KD TSLP” value (TSLP mRNA) was 32 ± 2%.
